{
  "source": "patent US7932262B2",
  "about": "(Novartis AG, priority 2006, dated 2011)",
  "key": {"PDK1 kinase": {"molecular_target": "T1, PDK1 kinase (Homo sapiens, UniProt O15530)", "T1 sequence (O15530 1-556)": "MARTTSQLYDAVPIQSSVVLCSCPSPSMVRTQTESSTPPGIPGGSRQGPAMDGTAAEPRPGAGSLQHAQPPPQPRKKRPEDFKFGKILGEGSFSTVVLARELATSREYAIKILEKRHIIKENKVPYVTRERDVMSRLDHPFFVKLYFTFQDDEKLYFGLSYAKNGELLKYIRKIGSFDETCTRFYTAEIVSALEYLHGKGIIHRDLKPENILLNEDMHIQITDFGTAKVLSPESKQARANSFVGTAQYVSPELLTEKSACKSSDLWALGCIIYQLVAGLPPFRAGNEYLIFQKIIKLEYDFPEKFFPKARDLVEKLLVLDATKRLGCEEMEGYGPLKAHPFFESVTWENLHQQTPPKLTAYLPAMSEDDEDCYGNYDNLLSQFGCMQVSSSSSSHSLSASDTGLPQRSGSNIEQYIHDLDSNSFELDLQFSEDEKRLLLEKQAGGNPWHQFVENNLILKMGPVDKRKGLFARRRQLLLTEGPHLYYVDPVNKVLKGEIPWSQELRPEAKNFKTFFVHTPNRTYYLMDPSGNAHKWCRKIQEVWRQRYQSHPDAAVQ", "experiment": "PDK1 Kinase Alpha Screen Assay", "format": "biochemical", "details": "read-out: PDK1 IC50", "method_in_brief": "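Biotinylated PDK1-4 peptide (50 nM) phosphorylated by PDK1 with 10 uM ATP in pH 7.5 Tris/MgCl2/DTT buffer, 2.5% DMSO, for 3-18 hours. EDTA stop, then AlphaScreen detection with phospho-(Ser/Thr) PKA substrate antibody and protein A/streptavidin beads after overnight room-temperature development.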"}, "A2780 cells": {"system": "A2780 cells", "experiment": "Cell Proliferation Assay (Cell Titer Glo), A2780", "format": "cell-based", "details": "Homo sapiens, 72 h; A2780 cells, 3 days incubation; read-out: CPEC50 A2780", "method": "IV. Cell Proliferation Assay Protocol:\nA2780, PC-3, or PC3MM cells were seeded at 1000 cells/well in 100 μL/well (10.000 cells/mL) growth media in 96-well plates. Cells were allowed to adhere to the bottom of plates for 3-5 hours in a 37° C. 5% CO2 incubator. Compounds were dissolved in DMSO and then transferred to the cell plates. The cells were incubated with the compounds for 3 days in a 37° C. 5% CO2 incubator. The growth medium containing the compounds was then removed from the cells and fresh medium was added, followed by 100 μL of Cell Titer Glo assay reagent (Promega). This mixture was shaken for 1 minute and then incubated without shaking for 10 minutes. Activity determinations for the compounds were made by detection on a Trilux Instrument."}},
  "data": [
    {"smiles": "CC(=O)c1ccc(-c2cccc3cnc(Nc4ccc(S(N)(=O)=O)cc4)nc23)cc1", "note": "[Compound 88, 4-[8-(4-Acetyl-phenyl)-quinazolin-2-ylamino]-benzenesulfonamide]", "values": [
      {"measurement": "IC50", "setting": "PDK1 kinase", "result": "< 5", "unit": "µM"},
      {"measurement": "EC50", "setting": "A2780 cells", "result": "5 to 10", "unit": "µM"}
    ]},
    {"smiles": "NS(=O)(=O)c1ccc(Nc2ncc3cccc(-c4ccc(-c5ccn[nH]5)cc4)c3n2)cc1", "note": "[Compound 89, 4-{8-[4-(2H-Pyrazol-3-yl)-phenyl]-quinazolin-2-ylamino}-benzenesulfonamide]", "values": [
      {"measurement": "IC50", "setting": "PDK1 kinase", "result": "< 5", "unit": "µM"},
      {"measurement": "EC50", "setting": "A2780 cells", "result": "< 5", "unit": "µM"}
    ]},
    {"smiles": "NC(=O)c1cccc(-c2cccc3cnc(Nc4ccc(S(N)(=O)=O)cc4)nc23)c1", "note": "[Compound 90, 3-[2-(4-Sulfamoyl-phenylamino)-quinazolin-8-yl]-benzamide]", "values": [
      {"measurement": "IC50", "setting": "PDK1 kinase", "result": "< 5", "unit": "µM"},
      {"measurement": "EC50", "setting": "A2780 cells", "result": "< 5", "unit": "µM"}
    ]},
    {"smiles": "CS(=O)(=O)c1cccc(-c2cccc3cnc(Nc4ccc(S(N)(=O)=O)cc4)nc23)c1", "note": "[Compound 91, 4-[8-(3-Methanesulfonyl-phenyl)-quinazolin-2-ylamino]-benzenesulfonamide]", "values": [
      {"measurement": "IC50", "setting": "PDK1 kinase", "result": "< 5", "unit": "µM"},
      {"measurement": "EC50", "setting": "A2780 cells", "result": "< 5", "unit": "µM"}
    ]},
    {"smiles": "CS(=O)(=O)Nc1cccc(-c2cccc3cnc(Nc4ccc(S(N)(=O)=O)cc4)nc23)c1", "note": "[Compound 92, 4-[8-(3-Methanesulfonylamino-phenyl)-quinazolin-2-ylamino]-benzenesulfonamide]", "values": [
      {"measurement": "IC50", "setting": "PDK1 kinase", "result": "< 5", "unit": "µM"},
      {"measurement": "EC50", "setting": "A2780 cells", "result": "< 5", "unit": "µM"}
    ]},
    {"smiles": "CC(=O)Nc1cccc(-c2cccc3cnc(Nc4ccc(S(N)(=O)=O)cc4)nc23)c1", "note": "[Compound 93, N-{3-[2-(4-Sulfamoyl-phenylamino)-quinazolin-8-yl]-phenyl}-acetamide]", "values": [
      {"measurement": "IC50", "setting": "PDK1 kinase", "result": "< 5", "unit": "µM"},
      {"measurement": "EC50", "setting": "A2780 cells", "result": "< 5", "unit": "µM"}
    ]},
    {"smiles": "NS(=O)(=O)c1ccc(Nc2ncc3cccc(-c4ccc5c(c4)OCO5)c3n2)cc1", "note": "[Compound 95, 4-(8-Benzo[1,3]dioxol-5-yl-quinazolin-2-ylamino)-benzenesulfonamide]", "values": [
      {"measurement": "IC50", "setting": "PDK1 kinase", "result": "< 5", "unit": "µM"},
      {"measurement": "EC50", "setting": "A2780 cells", "result": "< 5", "unit": "µM"}
    ]},
    {"smiles": "NC(=O)c1ccc(-c2cccc3cnc(Nc4ccc(S(N)(=O)=O)cc4)nc23)cc1", "note": "[Compound 96, 4-[2-(4-Sulfamoyl-phenylamino)-quinazolin-8-yl]-benzamide]", "values": [
      {"measurement": "IC50", "setting": "PDK1 kinase", "result": "< 5", "unit": "µM"},
      {"measurement": "EC50", "setting": "A2780 cells", "result": "< 5", "unit": "µM"}
    ]},
    {"smiles": "NS(=O)(=O)c1ccc(Nc2ncc3cccc(-c4ccnc(F)c4)c3n2)cc1", "note": "[Compound 97, 4-[8-(2-Fluoro-pyridin-4-yl)-quinazolin-2-ylamino]-benzenesulfonamide]", "values": [
      {"measurement": "IC50", "setting": "PDK1 kinase", "result": "< 5", "unit": "µM"},
      {"measurement": "EC50", "setting": "A2780 cells", "result": "< 5", "unit": "µM"}
    ]},
    {"smiles": "NS(=O)(=O)c1ccc(Nc2ncc3cccc(-c4cccnc4)c3n2)cc1", "note": "[Compound 98, 4-(8-Pyridin-3-yl-quinazolin-2-ylamino)-benzenesulfonamide]", "values": [
      {"measurement": "IC50", "setting": "PDK1 kinase", "result": "< 5", "unit": "µM"},
      {"measurement": "EC50", "setting": "A2780 cells", "result": "5 to 10", "unit": "µM"}
    ]},
    {"smiles": "NS(=O)(=O)c1ccc(Nc2ncc3cccc(-c4ccncc4)c3n2)cc1", "note": "[Compound 99, 4-(8-Pyridin-4-yl-quinazolin-2-ylamino)-benzenesulfonamide]", "values": [
      {"measurement": "IC50", "setting": "PDK1 kinase", "result": "< 5", "unit": "µM"},
      {"measurement": "EC50", "setting": "A2780 cells", "result": "5 to 10", "unit": "µM"}
    ]},
    {"smiles": "COCCNc1cc(-c2cccc3cnc(Nc4ccc(S(N)(=O)=O)cc4)nc23)ccn1", "note": "[Compound 100, 4-{8-[2-(2-Methoxy-ethylamino)-pyridin-4-yl]-quinazolin-2-ylamino}-benzenesulfonamide]", "values": [
      {"measurement": "IC50", "setting": "PDK1 kinase", "result": "< 5", "unit": "µM"},
      {"measurement": "EC50", "setting": "A2780 cells", "result": "< 5", "unit": "µM"}
    ]},
    {"smiles": "CC(=O)NCCNc1cc(-c2cccc3cnc(Nc4ccc(S(N)(=O)=O)cc4)nc23)ccn1", "note": "[Compound 101, N-(2-{4-[2-(4-Sulfamoyl-phenylamino)-quinazolin-8-yl]-pyridin-2-ylamino}-ethyl)-acetamide]", "values": [
      {"measurement": "IC50", "setting": "PDK1 kinase", "result": "< 5", "unit": "µM"},
      {"measurement": "EC50", "setting": "A2780 cells", "result": "< 5", "unit": "µM"}
    ]},
    {"smiles": "NS(=O)(=O)c1ccc(Nc2ncc3cccc(-c4ccnc(NCCN5CCCC5)c4)c3n2)cc1", "note": "[Compound 102, 4-{8-[2-(2-Pyrrolidin-1-yl-ethylamino)-pyridin-4-yl]-quinazolin-2-ylamino}-benzenesulfonamide]", "values": [
      {"measurement": "IC50", "setting": "PDK1 kinase", "result": "< 5", "unit": "µM"},
      {"measurement": "EC50", "setting": "A2780 cells", "result": "< 5", "unit": "µM"}
    ]},
    {"smiles": "NS(=O)(=O)c1ccc(Nc2ncc3cccc(-c4cnoc4)c3n2)cc1", "note": "[Compound 103, 4-(8-Isoxazol-4-yl-quinazolin-2-ylamino)-benzenesulfonamide]", "values": [
      {"measurement": "IC50", "setting": "PDK1 kinase", "result": "< 5", "unit": "µM"},
      {"measurement": "EC50", "setting": "A2780 cells", "result": "< 5", "unit": "µM"}
    ]},
    {"smiles": "NS(=O)(=O)c1ccc(Nc2ncc3cccc(-c4cn[nH]c4)c3n2)cc1", "note": "[Compound 104, 4-[8-(1H-Pyrazol-4-yl)-quinazolin-2-ylamino]-benzenesulfonamide]", "values": [
      {"measurement": "IC50", "setting": "PDK1 kinase", "result": "< 5", "unit": "µM"},
      {"measurement": "EC50", "setting": "A2780 cells", "result": "< 5", "unit": "µM"}
    ]}
  ]
}
